Assay results taken from BindingDB's records for doi:10.7270/Q2GQ70ZD (n/a, 1994).

molecular target: T1, Alpha-1B adrenergic receptor (Homo sapiens, UniProt P35368); assay: Binding affinity towards human Alpha-1B adrenergic receptor by the displacement of [3H]prazosin
T1 sequence (P35368 whole entry): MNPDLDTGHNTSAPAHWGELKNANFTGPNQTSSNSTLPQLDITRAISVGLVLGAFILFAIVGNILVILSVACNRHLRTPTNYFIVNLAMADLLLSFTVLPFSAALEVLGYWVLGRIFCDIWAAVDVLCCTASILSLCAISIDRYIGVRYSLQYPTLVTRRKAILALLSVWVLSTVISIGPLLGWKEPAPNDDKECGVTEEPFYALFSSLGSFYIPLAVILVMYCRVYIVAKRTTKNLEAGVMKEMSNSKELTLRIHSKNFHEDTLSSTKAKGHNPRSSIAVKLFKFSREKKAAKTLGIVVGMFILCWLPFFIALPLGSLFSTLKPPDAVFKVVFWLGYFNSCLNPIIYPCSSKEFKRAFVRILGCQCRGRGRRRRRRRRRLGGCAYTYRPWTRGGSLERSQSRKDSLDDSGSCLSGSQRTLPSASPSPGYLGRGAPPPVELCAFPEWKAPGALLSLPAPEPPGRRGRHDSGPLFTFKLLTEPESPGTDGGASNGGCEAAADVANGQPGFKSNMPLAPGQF

Row | SMILES | Ki [µM]
1 | C1COC(N2CCOCC2)=N1 | 1000
2 | c1ccc2c(c1)CCCC2NC1=NCCO1 (stereo unspecified) | 2.45
3 | CCC[C@H]1CCCCC1NC1=NCCO1 (stereo partly specified) | 3.98
4 | C1COC(NC(C2CC2)C2CC2)=N1 [CHEBI:8862] | 21.4

Next, values leading:

Row | Ki [µM] | SMILES
5 | 28.2 | C1CCCC(NC2=NCCO2)CC1
6 | 6.76 | c1ccc2c(c1)CCCC2NC1=NCCCO1 (stereo unspecified)
